± gives the standard deviation of the averaged measurements.
Columns and labels:
Conditions in all cases: 72 h
SHI-1 [1] = experiment: cell viability (% survival relative to DMSO control, bortezomib = 0%); higher = less cytotoxic
Procedure, shortened: (§1)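 Percent survival is reported as the mean of duplicate wells. Cells from 10 AML and 5 CML lines were plated in 384-well plates containing compounds at 1, 10, 100, 1000 or 10000 nM and kept for 72 h at 37 °C in 5% CO2. Readout used CellTiter-Glo luminescence, scaled so that vehicle equals 100% and a 10 µM positive control equals 0%.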

LAMA-84 [2] = experiment: as above
Procedure, shortened: as §1

KCL-22 [3] = experiment: as above
Procedure, shortened: as §1

THP-1 [4] = experiment: as above
Procedure, shortened: as §1

KG-1 [5] = experiment: as above
Procedure, shortened: as §1

HL-60 [6] = experiment: as above
Procedure, shortened: as §1

BV-173 [7] = experiment: as above
Procedure, shortened: as §1

MV4-11 [8] = experiment: as above
Procedure, shortened: as §1

MOLM-13 [9] = experiment: as above
Procedure, shortened: as §1

HEL [10] = experiment: as above
Procedure, shortened: as §1

NOMO-1 [11] = experiment: as above
Procedure, shortened: as §1

ML-2 [12] = experiment: as above
Procedure, shortened: as §1

KU-812 [13] = experiment: as above
Procedure, shortened: as §1

Mono-Mac-6 [14] = experiment: as above
Procedure, shortened: as §1

K-562 [15] = experiment: as above
Procedure, shortened: as §1

SHI-1 [16] = test system: SHI-1
Procedure, shortened: (§2)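 In 384-well plates holding acoustically pre-printed compounds at five tenfold doses from 1 to 10,000 nM, in duplicate, fifteen myeloid leukaemia cell lines were grown in RPMI 1640 for 72 h at 37 °C with 5% CO2. Luminescent ATP viability was scaled between vehicle and a positive control at 10 µM. The IC50 was then taken from log-logistic dose–response fits with four parameters.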

LAMA-84 [17] = test system: LAMA-84
Procedure, shortened: as §2

KCL-22 [18] = test system: KCL-22
Procedure, shortened: as §2

THP-1 [19] = test system: THP-1
Procedure, shortened: as §2

KG-1 [20] = test system: KG-1
Procedure, shortened: as §2

HL-60 [21] = test system: HL-60
Procedure, shortened: as §2

BV-173 [22] = test system: BV-173
Procedure, shortened: as §2

MV4-11 [23] = test system: MV4-11
Procedure, shortened: as §2

MOLM-13 [24] = test system: MOLM-13
Procedure, shortened: as §2

HEL [25] = test system: HEL
Procedure, shortened: as §2

NOMO-1 [26] = test system: NOMO-1
Procedure, shortened: as §2

ML-2 [27] = test system: ML-2
Procedure, shortened: as §2

KU-812 [28] = test system: KU-812
Procedure, shortened: as §2

Mono-Mac-6 [29] = test system: Mono-Mac-6
Procedure, shortened: as §2

K-562 [30] = test system: K-562
Procedure, shortened: as §2

HL-60 [31] = experiment: cell viability (% survival relative to DMSO control); higher = less cytotoxic
Procedure, shortened: (§3)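 A rescreen of the full library used HL-60 cells in RPMI 1640 with 10% FBS on 384-well plates, run in duplicate at five tenfold concentrations (1–10,000 nM). Each screen included DMSO or 100 nM of one of three metabolic inhibitors and ran 72 h at 37 °C, 5% CO2. CellTiter-Glo viability was scaled between DMSO and 10 μM proteasome-inhibitor wells. Any area under the curve comes from four-parameter log-logistic fits with drc and PharmacoGx.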

HL-60 [32] = experiment: area under dose-response curve (viability, 1 nM-10 uM) (fraction (0-1)); higher = more sensitive
Procedure, shortened: as §3

CCOC(=O)c1ccc(-c2ccc(OC(=O)N(C)Cc3cccc(-c4ccncc4)c3)cc2)cc1 [WWL113]
cell viability [%]
Conditions | 1 nM | 10 nM | 100 nM | 1000 nM | 10000 nM
BV-173 [7] | 123 | 114 | 102 | 105 | 94.9
HEL [10] | 134 | 99.2 | 91.9 | 104 | 99.6
HL-60 [6] | 103 | 91.3 | 89.1 | 114 | 125
K-562 [15] | 121 | 105 | 94 | 92.1 | 87.5
KCL-22 [3] | 132 | 95.4 | 98.7 | 92.9 | 110
KG-1 [5] | 99.2 | 93.4 | 92.7 | 94.3 | 107
KU-812 [13] | 112 | 100 | 105 | 91.6 | 92
LAMA-84 [2] | 113 | 104 | 94.8 | 114 | 101
ML-2 [12] | 104 | 101 | 94.7 | 106 | 106
MOLM-13 [9] | 120 | 122 | 97.3 | 85.8 | 105
MV4-11 [8] | 129 | 101 | 105 | 103 | 93.3
Mono-Mac-6 [14] | 108 | 112 | 102 | 94.2 | 109
NOMO-1 [11] | 104 | 106 | 88.1 | 104 | 105
SHI-1 [1] | 114 | 100 | 92 | 95.2 | 108
THP-1 [4] | 114 | 101 | 95.2 | 101 | 102

Conditions | IC50 (cell viability) [µM]
BV-173 [22] | > 10
HEL [25] | > 10
HL-60 [21] | > 10
K-562 [30] | > 10
KCL-22 [18] | > 10
KG-1 [20] | > 10
KU-812 [28] | > 10
LAMA-84 [17] | > 10
ML-2 [27] | > 10
MOLM-13 [24] | > 10
MV4-11 [23] | > 10
Mono-Mac-6 [29] | > 10
NOMO-1 [26] | > 10
SHI-1 [16] | > 10
THP-1 [19] | > 10

N#Cc1ccnc(N2C(=O)CC[C@H]2C(=O)N(c2cncc(F)c2)C(C(=O)NC2CC(F)(F)C2)c2ccccc2Cl)c1 (stereo partly drawn) [Ivosidenib]
cell viability [%]
Conditions | 1 nM | 10 nM | 100 nM | 1000 nM | 10000 nM
BV-173 [7] | 93.2 | 95.1 | 95.8 | 104 | 92.2
HEL [10] | 89.5 | 104 | 114 | 105 | 121
HL-60 [6] | 112 | 100 | 116 | 95.3 | 92.1
K-562 [15] | 90.3 | 105 | 101 | 99.2 | 93.3
KCL-22 [3] | 92.3 | 95.3 | 110 | 99 | 93.3
KG-1 [5] | 92.4 | 105 | 106 | 98.2 | 78.2
KU-812 [13] | 92.7 | 102 | 107 | 106 | 87.4
LAMA-84 [2] | 112 | 101 | 110 | 107 | 81.4
ML-2 [12] | 107 | 85.4 | 105 | 98.1 | 92
MOLM-13 [9] | 111 | 103 | 109 | 96 | 95.1
MV4-11 [8] | 98 | 104 | 107 | 110 | 94.5
Mono-Mac-6 [14] | 97.8 | 88.9 | 108 | 90.2 | 81.5
NOMO-1 [11] | 97.8 | 95.6 | 103 | 104 | 90.8
SHI-1 [1] | 99.1 | 104 | 100 | 95.4 | 104
THP-1 [4] | 103 | 94.9 | 107 | 102 | 96

Conditions | IC50 (cell viability) [µM]
BV-173 [22] | > 10
HEL [25] | > 10
HL-60 [21] | > 10
K-562 [30] | > 10
KCL-22 [18] | > 10
KG-1 [20] | > 10
KU-812 [28] | > 10
LAMA-84 [17] | > 10
ML-2 [27] | > 10
MOLM-13 [24] | > 10
MV4-11 [23] | > 10
Mono-Mac-6 [29] | > 10
NOMO-1 [26] | > 10
SHI-1 [16] | > 10
THP-1 [19] | > 10

O=C(O)C(=S)Cc1c[nH]c2ccc(F)cc12
cell viability [%], HL-60 [31]
Conditions | 0.001 µM | 0.01 µM | 0.1 µM | 1 µM | 10 µM
co-treatment: AZD3965 100 nM | 94 ± 11 | 98.2 ± 4.8 | 106 ± 1.3 | 103 ± 4.1 | 101.9 ± 1
co-treatment: DMSO vehicle | 99.1 ± 1.5 | 101 ± 1.8 | 106 ± 2 | 102 ± 2.4 | 104 ± 3.8
co-treatment: GSK2194069 100 nM | 90.8 ± 11 | 101 ± 2 | 103 ± 2.2 | 104 ± 4 | 104 ± 3.3
co-treatment: pictilisib 100 nM | 91.7 ± 1.3 | 99.9 ± 3.9 | 101.8 ± 0.68 | 101 ± 15 | 97.2 ± 1.9

HL-60 [32]
Conditions | area under dose-response curve
co-treatment: AZD3965 100 nM | < 0.0301
co-treatment: DMSO vehicle | < 0.0301
co-treatment: GSK2194069 100 nM | < 0.0301
co-treatment: pictilisib 100 nM | < 0.0301

CC(C)(O)CNc1nc(Nc2ccnc(C(F)(F)F)c2)nc(-c2cccc(C(F)(F)F)n2)n1 [AG-221]
cell viability [%], HL-60 [31]
Conditions | 0.001 µM | 0.01 µM | 0.1 µM | 1 µM | 10 µM
co-treatment: AZD3965 100 nM | 93.5 ± 4.8 | 105 ± 3 | 100 ± 5.2 | 98.6 ± 2.3 | 104 ± 2.8
co-treatment: DMSO vehicle | 96.6 ± 2.4 | 102 ± 7.7 | 101 ± 3.7 | 97.1 ± 1.5 | 103 ± 1.9
co-treatment: GSK2194069 100 nM | 85.8 ± 1.6 | 95.9 ± 8.7 | 100 ± 9.9 | 89 ± 5.2 | 94.2 ± 2.1
co-treatment: pictilisib 100 nM | 89.3 ± 3.3 | 104 ± 3 | 102 ± 8.6 | 94.9 ± 0.96 | 108 ± 5.6

HL-60 [32]
Conditions | area under dose-response curve
co-treatment: AZD3965 100 nM | < 0.0301
co-treatment: DMSO vehicle | < 0.0301
co-treatment: GSK2194069 100 nM | < 0.0301
co-treatment: pictilisib 100 nM | < 0.0301

CCOC(=O)c1cncn1[C@H](C)c1ccccc1 [Etomidate]
Conditions | IC50 (cell viability) [µM]
BV-173 [22] | > 10
HEL [25] | > 10
HL-60 [21] | > 10
K-562 [30] | > 10
KCL-22 [18] | > 10
KG-1 [20] | > 10
KU-812 [28] | > 10
LAMA-84 [17] | > 10
ML-2 [27] | > 10
MOLM-13 [24] | > 10
MV4-11 [23] | > 10
Mono-Mac-6 [29] | > 10
NOMO-1 [26] | > 10
SHI-1 [16] | > 10
THP-1 [19] | > 10
